The results in this text go back to paper PMC9143527, “A Novel Strategy for Regulating mRNA’s Degradation via Interfering the AUF1’s Binding to mRNA” (Molecules, 2022).

Assay [1] concerns the target T1, p37AUF1 (AUF1, hnRNP D) (Homo sapiens, UniProt Q14103).
T1 construct: gene HNRNPD; recombinant purified p37 isoform; expression details and tags only in supplement
T1 sequence (Q14103 2-287 isoform Q14103-4): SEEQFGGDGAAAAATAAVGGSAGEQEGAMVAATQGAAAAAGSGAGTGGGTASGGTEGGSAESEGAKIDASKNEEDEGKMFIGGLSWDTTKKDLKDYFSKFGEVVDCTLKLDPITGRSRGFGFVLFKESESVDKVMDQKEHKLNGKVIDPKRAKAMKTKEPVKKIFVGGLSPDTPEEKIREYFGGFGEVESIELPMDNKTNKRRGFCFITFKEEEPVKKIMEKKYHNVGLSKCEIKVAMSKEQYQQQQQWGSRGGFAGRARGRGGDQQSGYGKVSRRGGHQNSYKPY
Nature of the assay: SPR (Biacore 8K, CM5 chip, amine coupling). The format is binding. As to conditions: 20 mM PB pH 7.4 at immobilization; 5% DMSO; compound at 0-80 uM. Background: SPR reads the build-up and loss of mass on a sensor chip optically.

Assay [2] addresses T1, p37AUF1 (AUF1, hnRNP D). Put plainly: REMSA, inhibition of AUF1-RNA complex formation. The format is binding. The conditions noted are these: 750 nM AUF1, 250 nM FAM-labelled TNF ARE RNA; 10 mM Tris-HCl pH 8.0, 50 mM KCl, 2 mM DTT, 0.5 mM EDTA; on ice.
Another assay deals with T2, AUF1 (endogenous, CETSA) (Homo sapiens, UniProt Q14103).
T2 construct: gene HNRNPD; endogenous AUF1 in intact cells, detected by Western blot
T2 sequence (Q14103 2-355): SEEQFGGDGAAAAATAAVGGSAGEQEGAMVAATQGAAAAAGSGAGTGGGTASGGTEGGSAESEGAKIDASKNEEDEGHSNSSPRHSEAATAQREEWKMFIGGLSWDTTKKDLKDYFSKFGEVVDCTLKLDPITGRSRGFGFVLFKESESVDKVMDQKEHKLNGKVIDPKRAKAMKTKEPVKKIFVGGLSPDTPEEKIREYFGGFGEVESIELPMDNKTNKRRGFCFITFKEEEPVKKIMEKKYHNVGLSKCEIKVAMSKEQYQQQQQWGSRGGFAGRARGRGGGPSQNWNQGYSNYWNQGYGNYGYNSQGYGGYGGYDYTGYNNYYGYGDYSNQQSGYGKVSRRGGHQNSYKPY
Nature of the assay: CETSA, Western blot. It is filed as cell-based. The conditions noted are these: HepG2, SK-MEL-2, HCT-116 cells; 1 h treatment at 1, 3.5 or 6 uM. For orientation: In western blotting, separated proteins are transferred to a membrane and probed.

`Nc1nc(Nc2ccc(S(N)(=O)=O)cc2)nn1C(=O)c1c(F)cccc1F` [JNJ-7706621]: the “SPR (Biacore 8K, CM5 chip, amine coupling)” value at p37AUF1 (AUF1, hnRNP D) [1] is on record as “only one compound, JNJ-7706621, showed a typical binding curve shape”. Also, the “REMSA, inhibition of AUF1-RNA complex formation” value at p37AUF1 (AUF1, hnRNP D) [2] is listed as “After adding increasing JNJ-7706621, the bands representing RNA-AUF1 complex weakened”. The Tm entry on AUF1 (endogenous, CETSA) is reported as “The melting temperature fitted from the curve in each cell decreased when treated with JNJ-7706621”.
